For 7 molecules, GI50 and TGI results are on record in PubChem BioAssay (NCI).

Test systems include BT-549 breast; TK-10 renal; SK-MEL-5 melanoma; NCI-H23 lung; MALME-3M melanoma; M14 melanoma; LOX IMVI melanoma; HCT-15 colon; HCC-2998 colon; OVCAR-4 ovarian.
Assay in all cases: growth of human tumour cells (NCI), 48 h

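How tested: cells in 96-well plates exposed to compound for 48 hours at five concentrations. Abbreviation: GI50, concentration required for 50% inhibition of growth. TGI denotes the concentration required for complete inhibition of growth.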

Regarding `CCN1C(=O)C/C(=C\C(C)=O)Nc2ccccc21`, the GI50 in the assay on BT-549 breast and in the assay with HCT-15 colon was over 100 µM in each case. For the same molecule, the TGI in the assay on BT-549 breast was over 100 µM; with TK-10 renal, over 100 µM; with SK-MEL-5 melanoma, over 31.6 µM; in the assay on NCI-H23 lung, over 100 µM; in the assay with MALME-3M melanoma, over 100 µM; in the assay on M14 melanoma it was over 100 µM. Further, the TGI with LOX IMVI melanoma, with HCT-15 colon, in the assay on HCC-2998 colon and with OVCAR-4 ovarian was over 100 µM each time.
For the molecule `COc1cccc(-c2nn(-c3ccccc3)cc2-c2ccnc(NCCNS(=O)(=O)c3ccc(Cl)cc3)c2)c1`, the GI50 in the assay with BT-549 breast was 4.07 µM; in the assay on TK-10 renal, 4.75 µM; in the assay on SK-MEL-5 melanoma, 1.94 µM; in the assay on NCI-H23 lung, 4.32 µM; in the assay on MALME-3M melanoma, 3.8 µM; in the assay with M14 melanoma it was 4.15 µM. Further, the GI50 in the assay with LOX IMVI melanoma was 3.12 µM; in the assay with HCT-15 colon it was 3.86 µM; in the assay with HCC-2998 colon, 4.26 µM; in the assay with OVCAR-4 ovarian it was 4.15 µM. Moreover, the TGI is over 100 µM with BT-549 breast; over 100 µM in the assay with TK-10 renal; 3.88 µM with SK-MEL-5 melanoma; over 100 µM in the assay with NCI-H23 lung; over 100 µM in the assay on MALME-3M melanoma; over 100 µM in the assay on M14 melanoma. The TGI in the assay on LOX IMVI melanoma, in the assay on HCT-15 colon, with HCC-2998 colon and with OVCAR-4 ovarian was over 100 µM each time.
`C[Si](C)(C)C#CCO[Si](C)(C)C`: the TGI in the assay with BT-549 breast, in the assay with TK-10 renal, with SK-MEL-5 melanoma, in the assay on NCI-H23 lung, in the assay on MALME-3M melanoma and in the assay with M14 melanoma was over 100 µM in each case. For the same molecule, the TGI is 19.9 µM in the assay on LOX IMVI melanoma, over 100 µM in the assay with HCT-15 colon, over 100 µM with HCC-2998 colon and over 100 µM with OVCAR-4 ovarian.
As for `COc1ccc(C(=O)Cn2c(C(=O)c3ccc(OC)cc3)nc3ccccc32)cc1`, the GI50 with BT-549 breast is 3.52 µM; in the assay on TK-10 renal, 4.8 µM; in the assay on SK-MEL-5 melanoma, 2.36 µM; in the assay on NCI-H23 lung it was 6.15 µM; in the assay with MALME-3M melanoma it was 2.91 µM; in the assay on M14 melanoma, 1.59 µM. Further, the GI50 with LOX IMVI melanoma is 6.42 µM; in the assay on HCT-15 colon it was 1.21 µM; in the assay on HCC-2998 colon, 5.64 µM; in the assay with OVCAR-4 ovarian, 5.8 µM. Besides, the TGI is over 100 µM in the assay with BT-549 breast; over 100 µM with TK-10 renal; over 27.1 µM in the assay with SK-MEL-5 melanoma; over 100 µM with NCI-H23 lung; over 100 µM in the assay with MALME-3M melanoma; over 100 µM with M14 melanoma. Further, the TGI in the assay on LOX IMVI melanoma, in the assay with HCT-15 colon, with HCC-2998 colon and in the assay with OVCAR-4 ovarian was over 100 µM each time.
`CS(=O)(=O)c1ccc(Oc2cc(F)cc(C#N)c2)c2c1[C@H](O)[C@H](F)[C@@H]2F`: the GI50 in the assay with BT-549 breast, with TK-10 renal, in the assay on SK-MEL-5 melanoma, in the assay on NCI-H23 lung, in the assay with MALME-3M melanoma and with M14 melanoma was over 100 µM each time. Further, the GI50 with LOX IMVI melanoma, with HCT-15 colon, with HCC-2998 colon and with OVCAR-4 ovarian was over 100 µM in each case. In addition, the TGI in the assay on BT-549 breast, with TK-10 renal, with SK-MEL-5 melanoma, with NCI-H23 lung, with MALME-3M melanoma and in the assay on M14 melanoma was over 100 µM throughout. In addition, the TGI in the assay on LOX IMVI melanoma, in the assay on HCT-15 colon, in the assay with HCC-2998 colon and in the assay with OVCAR-4 ovarian was over 100 µM in each case.
As for `Nc1c(C(=O)Nc2ccccc2)sc2nc3c(cc12)CCCCCC3`, the GI50 was 0.286 µM with BT-549 breast; 0.883 µM with TK-10 renal; 0.393 µM in the assay on SK-MEL-5 melanoma; 0.65 µM in the assay with NCI-H23 lung; 1.29 µM in the assay on MALME-3M melanoma; 0.233 µM with M14 melanoma. Moreover, the GI50 was 0.772 µM with LOX IMVI melanoma, 0.314 µM in the assay with HCT-15 colon, 0.485 µM with HCC-2998 colon and 1.11 µM in the assay on OVCAR-4 ovarian. Also, the TGI in the assay with BT-549 breast came out at 4.05 µM; in the assay with TK-10 renal, 5.2 µM; with SK-MEL-5 melanoma it was 9.07 µM; with NCI-H23 lung, 16.4 µM; with MALME-3M melanoma, 19.4 µM; in the assay with M14 melanoma it was 3.15 µM. For the same molecule, the TGI with LOX IMVI melanoma was over 49.4 µM; in the assay on HCT-15 colon, 14 µM; with OVCAR-4 ovarian, 15.7 µM.
For the molecule `CCn1c(=O)c(-c2ccn[nH]2)cc2c(C)nc(N)nc21`, the GI50 was 0.225 µM in the assay on BT-549 breast; 0.871 µM with TK-10 renal; 1.38 µM with SK-MEL-5 melanoma; 2.07 µM in the assay on NCI-H23 lung; 0.167 µM with MALME-3M melanoma; 1.23 µM with M14 melanoma. For the same molecule, the GI50 is 1.73 µM with LOX IMVI melanoma, 2.08 µM in the assay with HCT-15 colon, 5.03 µM in the assay on HCC-2998 colon and 1.25 µM in the assay with OVCAR-4 ovarian. The TGI in the assay on BT-549 breast was 4.29 µM; with TK-10 renal, 4.62 µM; in the assay on SK-MEL-5 melanoma it was 6.3 µM; in the assay on NCI-H23 lung, over 100 µM; in the assay with MALME-3M melanoma, 1.33 µM; in the assay on M14 melanoma it was 30.6 µM. The TGI with LOX IMVI melanoma was 14.4 µM; in the assay with HCT-15 colon it was over 100 µM; in the assay with HCC-2998 colon, over 100 µM; in the assay on OVCAR-4 ovarian, 44 µM.
